Key:
[1] = target: T1, p-Akt1 in LNCaP cells (Homo sapiens, UniProt P31749); experiment: Phospho-Akt cellular SureFire assay, p-Akt1 in LNCaP cells; assay type: cell-based; conditions: read-out: Biological Assay 2 IC50 (nM) Akt1 LNCaP
T1 construct: SureFire assays to detect cellular p-Akt1, p-Akt2 and p-Akt3 levels in WM115 cells (Akt2/3) and LNCaP cells (Akt1); endogenous in cells; host or cells: LNCaP (ECACC 89110211)
How it was run: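 LNCaP cells, 5×10^4/well, seeded overnight, switched to 0.1% FBS medium without insulin stimulation, then compound for 15 min at 37 °C (0.3% DMSO). Lysate p-Akt1 (pThr308) by AlphaScreen SureFire, two 2 h incubations at room temperature; IC50 by 4-parameter fit.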

[2] = target: T2, Akt1 (Homo sapiens, UniProt P31749); experiment: Akt activation assay (PDK1-mediated activation, LANCE Ultra crosstide TR-FRET), Akt1; assay type: biochemical; conditions: read-out: Biological Assay 1 IC50 (nM) Akt1
T2 construct: unspecified tag, removed (detagged) (cleaved yes); purchased SignalChem and Proteros (Akt1); Merck Millipore (PDK1) 14-452 (PDK1); none given for Akt1
How it was run: (§1)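 Compound + Akt preinc.; start w/ PDK1 5 nM, DOPS/DOPC 5.5 μM each, PIP3 0.55 μM, ATP 100 μM, Ulight-crosstide 100 nM; HEPES pH 7.5, 10 mM MgCl2, 2 mM DTT, 1% DMSO; 30 min; EDTA stop; Eu-Ab TR-FRET; 4-PL IC50.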

[3] = target: T3, Akt3 (Homo sapiens, UniProt Q9Y243); experiment: Akt activation assay (PDK1-mediated activation, LANCE Ultra crosstide TR-FRET), Akt3; assay type: biochemical; conditions: read-out: Biological Assay 1 IC50 (nM) Akt3
T3 construct: unspecified tag, removed (detagged) (cleaved yes); purchased SignalChem and Proteros (Akt3); Merck Millipore (PDK1) 14-452 (PDK1); none given for Akt3
How it was run: as §1

[4] = target: T4, Akt2 (Homo sapiens, UniProt P31751); experiment: Akt activation assay (PDK1-mediated activation, LANCE Ultra crosstide TR-FRET), Akt2; assay type: biochemical; conditions: read-out: Biological Assay 1 IC50 (nM) Akt2
T4 construct: unspecified tag, removed (detagged) (cleaved yes); purchased SignalChem and Proteros (Akt2); Merck Millipore (PDK1) 14-452 (PDK1); none given for Akt2
How it was run: as §1

[5] = target: T5, p-Akt2 in WM115 cells (Homo sapiens, UniProt P31751); experiment: Phospho-Akt cellular SureFire assay, p-Akt2 in WM115 cells; assay type: cell-based; conditions: insulin stimulated, read-out: Biological Assay 2 IC50 (nM) Akt2 WM115
T5 construct: SureFire assays to detect cellular p-Akt1, p-Akt2 and p-Akt3 levels in WM115 cells (Akt2/3) and LNCaP cells (Akt1); endogenous in cells; host or cells: WM115 (ECACC 91061232), insulin-stimulated
How it was run: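 WM115 cells in 0.1% FBS medium stimulated 10 min with 100 nM insulin, then exposed to compound for 15 min at 37° C (0.3% DMSO final). Lysates assayed by AlphaScreen with anti-(pThr308)Akt and isoform-specific total Akt2 antibodies; IC50 from 4-parameter fit.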

[6] = target: T6, p-Akt3 in WM115 cells (Homo sapiens, UniProt Q9Y243); experiment: Phospho-Akt cellular SureFire assay, p-Akt3 in WM115 cells; assay type: cell-based; conditions: insulin stimulated, read-out: Biological Assay 2 IC50 (nM) Akt3 WM115
T6 construct: SureFire assays to detect cellular p-Akt1, p-Akt2 and p-Akt3 levels in WM115 cells (Akt2/3) and LNCaP cells (Akt1); endogenous in cells; host or cells: WM115 (ECACC 91061232), insulin-stimulated
How it was run: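 WM115 cells were serum-reduced to 0.1% FBS, stimulated with 100 nM insulin for 10 min, then exposed to compound (0.3% DMSO) for 15 min at 37 °C. Lysates were assayed for Thr308-phosphorylated Akt3 by AlphaScreen SureFire using an isoform-specific total Akt3 capture antibody. IC50 was derived from a 4-parameter fit.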

T6 sequence (Q9Y243 whole entry): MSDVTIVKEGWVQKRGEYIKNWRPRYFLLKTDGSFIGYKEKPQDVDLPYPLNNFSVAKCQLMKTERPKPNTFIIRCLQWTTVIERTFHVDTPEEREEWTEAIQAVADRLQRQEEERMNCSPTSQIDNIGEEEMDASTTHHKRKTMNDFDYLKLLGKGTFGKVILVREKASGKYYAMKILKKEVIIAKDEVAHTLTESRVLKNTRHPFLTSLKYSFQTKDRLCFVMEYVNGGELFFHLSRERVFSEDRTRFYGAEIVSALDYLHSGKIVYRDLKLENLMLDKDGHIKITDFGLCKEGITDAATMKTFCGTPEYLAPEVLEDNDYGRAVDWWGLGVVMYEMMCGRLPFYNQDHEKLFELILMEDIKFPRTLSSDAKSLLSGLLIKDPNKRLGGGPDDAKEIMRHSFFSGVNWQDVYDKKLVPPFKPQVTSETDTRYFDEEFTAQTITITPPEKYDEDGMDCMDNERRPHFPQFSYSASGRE
T3 sequence (Q9Y243 whole entry): as above
T5 sequence (P31751 whole entry): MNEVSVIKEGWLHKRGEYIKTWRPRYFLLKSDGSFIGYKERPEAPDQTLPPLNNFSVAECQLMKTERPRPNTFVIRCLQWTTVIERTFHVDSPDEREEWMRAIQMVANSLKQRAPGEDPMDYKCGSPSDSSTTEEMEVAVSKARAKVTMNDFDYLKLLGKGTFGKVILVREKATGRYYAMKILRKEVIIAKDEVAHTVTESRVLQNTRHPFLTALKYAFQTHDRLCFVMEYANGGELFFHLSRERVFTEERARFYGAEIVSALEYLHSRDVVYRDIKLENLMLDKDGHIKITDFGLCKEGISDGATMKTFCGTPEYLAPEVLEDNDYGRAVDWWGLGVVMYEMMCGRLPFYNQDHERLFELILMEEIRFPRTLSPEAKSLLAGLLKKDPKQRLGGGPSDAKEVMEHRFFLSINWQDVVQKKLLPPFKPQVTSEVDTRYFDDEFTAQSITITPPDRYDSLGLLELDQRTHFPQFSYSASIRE
T4 sequence (P31751 whole entry): as above
T2 sequence (P31749 whole entry): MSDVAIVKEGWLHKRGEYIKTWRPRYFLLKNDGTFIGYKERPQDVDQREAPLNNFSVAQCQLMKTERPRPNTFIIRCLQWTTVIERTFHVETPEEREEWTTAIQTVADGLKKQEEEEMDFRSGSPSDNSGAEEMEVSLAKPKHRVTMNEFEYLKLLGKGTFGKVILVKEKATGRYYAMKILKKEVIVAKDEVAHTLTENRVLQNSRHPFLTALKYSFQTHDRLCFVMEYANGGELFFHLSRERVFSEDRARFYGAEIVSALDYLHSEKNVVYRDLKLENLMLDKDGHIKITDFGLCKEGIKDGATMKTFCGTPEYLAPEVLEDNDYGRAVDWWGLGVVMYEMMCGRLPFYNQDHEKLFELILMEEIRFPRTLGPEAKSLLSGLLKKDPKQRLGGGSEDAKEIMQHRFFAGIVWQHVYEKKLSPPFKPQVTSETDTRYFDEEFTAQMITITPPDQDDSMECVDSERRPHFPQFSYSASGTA
T1 sequence (P31749 whole entry): as above

Row | Structure (SMILES) | IC50 [1] [nM] | IC50 [2] [nM] | IC50 [3] [nM] | IC50 [4] [nM] | IC50 [5] [nM] | IC50 [6] [nM]
1 | CCC(=O)N(C(C)C)[C@H]1CC[C@H](CC(=O)Nc2cnc(-c3ccc([C@]4(N)C[C@](C)(O)C4)cc3)c(-c3ccccc3)c2)CC1 [Example 122, N-(trans-4-(2-((6-(4-(trans-1-amino-3-hydroxy-3-methylcyclobutyl)phenyl)-5-phenylpyridin-3-yl)amino)-2-oxoethyl)cyclohexyl)-N-isopropylpropionamide] | 1400 | 6100 | 8 | 87 | 390 | 13
2 | CC(=O)N(C)[C@H]1CC[C@H](CC(=O)Nc2cnc(-c3ccc(C4(N)CC(C)(O)C4)c(F)c3)c(-c3ccccc3)c2)CC1 (stereo partly drawn) [Example 124, N-(6-(4-(trans-1-amino-3-hydroxy-3-methylcyclobutyl)-3-fluorophenyl)-5-phenylpyridin-3-yl)-2-(trans-4-(N-methylacetamido)cyclohexyl)acetamide] | 10000 | > 21000 | 36 | 880 | 2400 | 27
3 | CCC(=O)N(C)[C@H]1CC[C@H](CC(=O)Nc2cc(-c3ccsc3)c(-c3ccc([C@]4(N)C[C@H](F)C4)cc3)nn2)CC1 [Example 125] | > 30000 | > 30000 | 26 | 1500 | 3000 | 22
4 | CCC(=O)N(C)[C@H]1CC[C@H](CC(=O)Nc2cc(-c3ccccc3)c(-c3ccc([C@]4(N)C[C@](C)(O)C4)c(F)c3)nn2)CC1 [Example 126, N-(trans-4-(2-((6-(4-(trans-1-amino-3-hydroxy-3-methylcyclobutyl)-3-fluorophenyl)-5-phenylpyridazin-3-yl)amino)-2-oxoethyl)cyclohexyl)-N-methylpropionamide] | > 30000 | > 30000 | 31 | 3000 | 3300 | 32
5 | CC(=O)N(C)[C@H]1CC[C@H](CC(=O)Nc2cc(-c3ccccc3)c(-c3ccc([C@]4(N)C[C@](C)(O)C4)c(F)c3)nn2)CC1 [Example 127, N-(6-(4-(trans-1-amino-3-hydroxy-3-methylcyclobutyl)-3-fluorophenyl)-5-phenylpyridazin-3-yl)-2-(trans-4-(N-methylacetamido)cyclohexyl)acetamide] | > 30000 | > 25000 | 31 | 2900 | 2900 | 42
6 | COCCN(C)[C@H]1CC[C@H](CC(=O)Nc2cc(-c3ccccc3)c(-c3ccc([C@]4(N)C[C@](C)(O)C4)cc3)cn2)CC1 [Example 128, N-(5-(4-(trans-1-amino-3-hydroxy-3-methylcyclobutyl)phenyl)-4-phenylpyridin-2-yl)-2-(trans-4-((2-methoxyethyl)(methyl)amino)cyclohexyl)acetamide] | 5500 | > 18000 | 110 | 370 | 810 | 93
7 | CCN(C(=O)OC)[C@H]1CC[C@H](CC(=O)Nc2cc(-c3ccccc3)c(-c3ccc([C@]4(N)C[C@](C)(O)C4)cc3)nn2)CC1 [Example 129, Methyl (trans-4-(2-((6-(4-(trans-1-amino-3-hydroxy-3-methylcyclobutyl)phenyl)-5-phenylpyridazin-3-yl)amino)-2-oxoethyl)cyclohexyl) (ethyl)carbamate] | 2000 | 11000 | 7 | 190 | 620 | 7
8 | COC(=O)N(C)[C@H]1CC[C@H](CC(=O)Nc2cnc(-c3ccc(C4(N)CCC4)cc3)c(-c3ccccc3)c2)CC1 [Example A1, Methyl (trans-4-(2-((6-(4-(1-aminocyclobutyl)phenyl)-5-phenylpyridin-3-yl)amino)-2-oxoethyl)cyclohexyl)(methyl)carbamate] | > 16000 | 4000 | 110 | 420 | 2800 | 130
9 | NC1(c2ccc(-c3ncc(NC(=O)C[C@H]4CC[C@H](N5CCOCC5)CC4)cc3-c3ccccc3)cc2)CC(F)(F)C1 [Example A2, N-(6-(4-(1-amino-3,3-difluorocyclobutyl)phenyl)-5-phenylpyridin-3-yl)-2-(trans-4-morpholinocyclohexyl)acetamide] | 7700 | 5500 | 1400 | 2600 | 6000 | 560
10 | COC(=O)N[C@H]1CC[C@H](CC(=O)Nc2cnc(-c3ccc(C4(N)CC(F)(F)C4)cc3)c(-c3ccccc3)c2)CC1 [Example A4, Methyl (trans-4-(2-((6-(4-(1-amino-3,3-difluorocyclobutyl)phenyl)-5-phenylpyridin-3-yl)amino)-2-oxoethyl)cyclohexyl)carbamate] | > 30000 | 11000 | 630 | 2400 | 7600 | 440
11 | CN(C(=O)C(F)F)[C@H]1CC[C@H](CC(=O)Nc2cnc(-c3ccc(C(C)(C)N)cc3)c(-c3ccccc3)c2)CC1 [Example A7, N-(trans-4-(2-((6-(4-(2-aminopropan-2-yl)phenyl)-5-phenylpyridin-3-yl)amino)-2-oxoethyl)cyclohexyl)-2,2-difluoro-N-methylacetamide] | > 30000 | > 30000 | 70 | 5800 | 7100 | 230
12 | CC(=O)N[C@H]1CC[C@H](CC(=O)Nc2cnc(-c3ccc([C@H](N)C(F)F)cc3)c(-c3ccccc3)c2)CC1 [Example A12, 2-(trans-4-acetamidocyclohexyl)-N-(6-(4-((S)-1-amino-2,2-difluoroethyl)phenyl)-5-phenylpyridin-3-yl)acetamide] | > 20000 | > 30000 | 4500 | 16000 | 24000 | 590
13 | NC1(c2ccc(-c3ncc(NC(=O)C[C@H]4CC[C@H](N5CCCCC5=O)CC4)cc3-c3ccsc3)cc2)CCC1 [Example A14, N-(6-(4-(1-aminocyclobutyl)phenyl)-5-(thiophen-3-yl)pyridin-3-yl)-2-(trans-4-(2-oxopiperidin-1-yl)cyclohexyl)acetamide] | > 30000 | > 30000 | 170 | 1800 | 3200 | 80
14 | C[C@]1(O)C[C@@](N)(c2ccc(-c3ncc(NC(=O)C[C@H]4CC[C@H](N5CCOCC5)CC4)cc3-c3ccccc3)cc2)C1 [Example A15, N-(6-(4-(trans-1-amino-3-hydroxy-3-methylcyclobutyl)phenyl)-5-phenylpyridin-3-yl)-2-(trans-4-morpholinocyclohexyl)acetamide] | 760 | 260 | 290 | 350 | 810 | 48
15 | CC(C)(N)c1ccc(-c2ncc(NC(=O)C[C@H]3CC[C@H](N4CCOCC4)CC3)cc2-c2ccccc2)cc1 [Example A18, N-(6-(4-(2-aminopropan-2-yl)phenyl)-5-phenylpyridin-3-yl)-2-(trans-4-morpholinocyclohexyl)acetamide] | > 27000 | > 30000 | 6300 | 25000 | 7900 | 270
16 | CC(=O)N[C@H]1CC[C@H](CC(=O)Nc2cnc(-c3ccc(C(C)(C)N)cc3)c(-c3ccccc3)c2)CC1 [Example A19, 2-(trans-4-acetamidocyclohexyl)-N-(6-(4-(2-aminopropan-2-yl)phenyl)-5-phenylpyridin-3-yl)acetamide] | > 30000 | > 45000 | 110 | > 50000 | > 30000 | 1800

From patent US10336702B2, “Pharmaceutically active compounds” (BERGENBIO ASA, priority 2015, dated 2019)
